Results taken from publication PMC6704710, “Preclinical evaluation of 3D185, a novel potent inhibitor of FGFR1/2/3 and CSF-1R, in FGFR-dependent and macrophage-dominant cancer models” (Journal of Experimental & Clinical Cancer Research : CR, 2019).

How the values were obtained:
Assay in all cases: Eurofins kinase panel
Format in all cases: biochemical
Conditions in all cases: read-out: Inhibition rate (%)
[1] = biological target: T1, PIP5K1α(h) (Homo sapiens, UniProt Q99755)
T1 construct: purchased Eurofins (KinaseProfiler)
T1 sequence (Q99755 whole entry): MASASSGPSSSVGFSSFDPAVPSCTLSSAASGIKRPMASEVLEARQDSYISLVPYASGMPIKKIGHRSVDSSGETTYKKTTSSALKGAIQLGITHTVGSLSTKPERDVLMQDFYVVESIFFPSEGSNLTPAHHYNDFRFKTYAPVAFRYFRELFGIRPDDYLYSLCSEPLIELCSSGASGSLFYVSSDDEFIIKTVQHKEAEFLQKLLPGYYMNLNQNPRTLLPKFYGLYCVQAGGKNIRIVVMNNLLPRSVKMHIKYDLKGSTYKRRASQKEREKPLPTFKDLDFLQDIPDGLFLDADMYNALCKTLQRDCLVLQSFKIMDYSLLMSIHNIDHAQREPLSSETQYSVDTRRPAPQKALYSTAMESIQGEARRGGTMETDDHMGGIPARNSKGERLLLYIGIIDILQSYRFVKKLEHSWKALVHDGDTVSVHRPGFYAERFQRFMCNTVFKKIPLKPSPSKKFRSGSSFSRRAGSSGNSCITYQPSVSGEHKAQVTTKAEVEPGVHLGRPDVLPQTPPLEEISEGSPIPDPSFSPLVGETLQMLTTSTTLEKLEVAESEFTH
Procedure: (§1) Active FGFR1–4, VEGFR1, KDR, VEGFR3, PDGFRα and PDGFRβ proteins were purchased from Eurofins (Fremont, United States), and kinase activity was assessed using ELISA, as previously reported. […]. Increasing concentrations of ATP were diluted for the kinase reaction in the ATP competition assay. CSF-1R kinase activity was analyzed using the Z’-LYTE™ Kinase Assay Kit (Thermo Fisher, United States). The assay formats are described in the SelectScreen Kinase Profiling Service Zlyte protocol. IC50 values were calculated by dose-response curve fitting using Prism (Graph Pad).

[2] = biological target: T2, PDGFRα(V561D)(h) (Homo sapiens, UniProt P16234, V561D)
T2 construct: purchased Eurofins (KinaseProfiler)
T2 sequence (P16234 24-1089 V561D): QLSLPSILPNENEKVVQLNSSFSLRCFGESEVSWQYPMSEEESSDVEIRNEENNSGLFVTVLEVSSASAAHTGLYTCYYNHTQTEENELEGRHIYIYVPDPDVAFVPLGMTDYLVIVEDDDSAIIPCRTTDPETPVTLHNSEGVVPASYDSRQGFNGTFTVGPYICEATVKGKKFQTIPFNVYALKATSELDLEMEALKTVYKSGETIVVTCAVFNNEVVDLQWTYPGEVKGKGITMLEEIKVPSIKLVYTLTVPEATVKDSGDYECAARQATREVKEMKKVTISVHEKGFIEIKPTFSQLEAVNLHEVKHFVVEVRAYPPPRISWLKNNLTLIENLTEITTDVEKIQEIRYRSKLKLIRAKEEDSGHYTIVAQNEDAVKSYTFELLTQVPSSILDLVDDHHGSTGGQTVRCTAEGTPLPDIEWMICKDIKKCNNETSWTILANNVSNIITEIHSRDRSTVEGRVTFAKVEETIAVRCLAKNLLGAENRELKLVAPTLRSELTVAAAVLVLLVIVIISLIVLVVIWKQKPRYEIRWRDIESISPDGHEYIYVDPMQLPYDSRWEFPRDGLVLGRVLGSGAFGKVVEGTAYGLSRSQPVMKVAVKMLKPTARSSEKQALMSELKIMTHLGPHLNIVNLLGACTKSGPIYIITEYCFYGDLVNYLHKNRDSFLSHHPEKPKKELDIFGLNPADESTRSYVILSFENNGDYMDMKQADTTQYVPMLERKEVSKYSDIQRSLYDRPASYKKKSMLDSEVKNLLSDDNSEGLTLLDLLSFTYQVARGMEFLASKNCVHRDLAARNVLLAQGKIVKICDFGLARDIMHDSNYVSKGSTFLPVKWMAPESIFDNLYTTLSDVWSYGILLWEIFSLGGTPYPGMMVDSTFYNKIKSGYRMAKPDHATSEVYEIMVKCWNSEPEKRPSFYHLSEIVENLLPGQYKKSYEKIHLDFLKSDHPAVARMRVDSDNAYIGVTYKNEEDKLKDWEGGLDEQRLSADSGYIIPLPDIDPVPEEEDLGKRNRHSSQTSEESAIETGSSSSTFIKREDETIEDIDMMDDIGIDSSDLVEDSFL
Procedure: as §1

[3] = biological target: T3, ErbB2(h) (Homo sapiens, UniProt P04626)
T3 construct: purchased Eurofins (KinaseProfiler)
T3 sequence (P04626 23-1255): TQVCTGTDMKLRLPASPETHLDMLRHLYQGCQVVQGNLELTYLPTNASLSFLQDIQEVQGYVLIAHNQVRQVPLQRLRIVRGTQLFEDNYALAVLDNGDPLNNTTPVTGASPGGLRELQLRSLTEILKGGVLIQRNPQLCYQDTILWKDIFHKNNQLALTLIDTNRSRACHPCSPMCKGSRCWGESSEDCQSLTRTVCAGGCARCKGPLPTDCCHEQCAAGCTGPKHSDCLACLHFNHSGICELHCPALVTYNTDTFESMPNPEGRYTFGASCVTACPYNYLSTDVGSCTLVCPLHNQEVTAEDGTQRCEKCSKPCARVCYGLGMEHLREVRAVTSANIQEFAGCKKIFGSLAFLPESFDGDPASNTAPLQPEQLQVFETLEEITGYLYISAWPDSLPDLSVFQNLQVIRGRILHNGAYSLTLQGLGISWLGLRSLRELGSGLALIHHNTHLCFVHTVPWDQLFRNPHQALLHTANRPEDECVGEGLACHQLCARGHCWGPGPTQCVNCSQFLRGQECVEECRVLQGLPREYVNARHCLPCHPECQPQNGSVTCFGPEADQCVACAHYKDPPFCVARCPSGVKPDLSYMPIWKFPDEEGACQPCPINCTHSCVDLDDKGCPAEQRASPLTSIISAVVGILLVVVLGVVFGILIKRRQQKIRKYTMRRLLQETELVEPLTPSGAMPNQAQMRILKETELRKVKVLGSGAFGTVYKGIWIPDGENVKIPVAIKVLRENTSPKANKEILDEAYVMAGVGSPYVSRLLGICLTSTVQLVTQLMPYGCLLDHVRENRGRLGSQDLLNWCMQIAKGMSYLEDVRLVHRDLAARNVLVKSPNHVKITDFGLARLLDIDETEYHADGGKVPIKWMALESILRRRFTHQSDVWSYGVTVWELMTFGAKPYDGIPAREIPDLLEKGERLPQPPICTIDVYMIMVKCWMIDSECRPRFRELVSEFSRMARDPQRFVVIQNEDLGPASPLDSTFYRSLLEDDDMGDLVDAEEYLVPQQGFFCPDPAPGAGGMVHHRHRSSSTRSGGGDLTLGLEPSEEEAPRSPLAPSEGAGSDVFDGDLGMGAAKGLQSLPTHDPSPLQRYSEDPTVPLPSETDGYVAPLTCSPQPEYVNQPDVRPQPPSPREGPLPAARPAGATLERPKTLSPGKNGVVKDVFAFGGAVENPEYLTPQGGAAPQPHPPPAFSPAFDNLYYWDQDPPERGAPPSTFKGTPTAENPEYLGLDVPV
Procedure: as §1

[4] = biological target: T4, PI3 Kinase (p110α/p65α)(h) (Homo sapiens, UniProt P42336)
T4 construct: purchased Eurofins (KinaseProfiler)
Procedure: as §1

[5] = biological target: T5, TAO3(h) (Homo sapiens, UniProt Q9H2K8)
T5 construct: purchased Eurofins (KinaseProfiler)
T5 sequence (Q9H2K8 1-898): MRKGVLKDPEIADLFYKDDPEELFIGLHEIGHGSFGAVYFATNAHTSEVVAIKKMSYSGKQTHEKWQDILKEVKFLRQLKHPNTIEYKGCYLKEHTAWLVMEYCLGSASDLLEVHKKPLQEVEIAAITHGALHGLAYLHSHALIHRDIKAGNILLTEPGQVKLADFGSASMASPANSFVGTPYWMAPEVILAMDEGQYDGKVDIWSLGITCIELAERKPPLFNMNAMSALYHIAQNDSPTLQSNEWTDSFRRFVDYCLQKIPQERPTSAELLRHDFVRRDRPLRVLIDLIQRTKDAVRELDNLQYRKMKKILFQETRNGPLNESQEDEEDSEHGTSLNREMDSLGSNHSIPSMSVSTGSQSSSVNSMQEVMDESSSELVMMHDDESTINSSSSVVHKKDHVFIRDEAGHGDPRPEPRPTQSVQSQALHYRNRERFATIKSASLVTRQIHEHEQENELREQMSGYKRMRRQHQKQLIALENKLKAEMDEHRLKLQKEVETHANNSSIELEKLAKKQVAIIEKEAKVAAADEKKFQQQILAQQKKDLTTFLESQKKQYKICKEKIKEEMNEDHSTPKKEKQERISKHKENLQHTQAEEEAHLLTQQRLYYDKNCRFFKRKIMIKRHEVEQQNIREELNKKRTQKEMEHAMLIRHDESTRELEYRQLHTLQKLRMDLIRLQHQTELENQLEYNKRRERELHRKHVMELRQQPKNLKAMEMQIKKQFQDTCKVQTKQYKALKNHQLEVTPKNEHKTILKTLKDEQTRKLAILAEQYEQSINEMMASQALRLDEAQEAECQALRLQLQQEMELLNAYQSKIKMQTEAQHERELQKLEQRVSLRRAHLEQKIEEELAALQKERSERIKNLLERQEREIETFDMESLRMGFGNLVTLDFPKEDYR
Procedure: as §1

[6] = biological target: T6, PKCα(h) (Homo sapiens, UniProt P17252)
T6 construct: purchased Eurofins (KinaseProfiler)
Procedure: as §1

[7] = biological target: T7, CDK5/p25(h) (Homo sapiens, UniProt Q00535)
T7 construct: purchased Eurofins (KinaseProfiler)
T7 sequence (Q00535 whole entry): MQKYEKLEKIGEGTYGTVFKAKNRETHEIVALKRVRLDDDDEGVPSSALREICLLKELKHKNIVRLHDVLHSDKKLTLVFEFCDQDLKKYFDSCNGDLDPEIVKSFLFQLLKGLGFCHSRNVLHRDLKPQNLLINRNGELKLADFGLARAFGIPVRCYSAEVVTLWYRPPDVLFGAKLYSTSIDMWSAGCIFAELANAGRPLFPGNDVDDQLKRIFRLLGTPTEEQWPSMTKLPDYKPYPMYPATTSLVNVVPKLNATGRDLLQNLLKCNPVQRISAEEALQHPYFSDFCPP
T7 sequence (Q15078 99-307 partner limits assumed): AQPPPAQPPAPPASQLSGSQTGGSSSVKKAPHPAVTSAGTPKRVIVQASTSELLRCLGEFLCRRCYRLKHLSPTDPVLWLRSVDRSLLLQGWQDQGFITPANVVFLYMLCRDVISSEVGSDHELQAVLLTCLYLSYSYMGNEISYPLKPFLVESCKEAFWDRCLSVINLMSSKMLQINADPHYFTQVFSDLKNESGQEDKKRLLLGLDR
Procedure: as §1

[8] = biological target: T8, cKit(D816H)(h) (Homo sapiens, UniProt P10721, D816H)
T8 construct: purchased Eurofins (KinaseProfiler)
T8 sequence (P10721 26-976 D816H): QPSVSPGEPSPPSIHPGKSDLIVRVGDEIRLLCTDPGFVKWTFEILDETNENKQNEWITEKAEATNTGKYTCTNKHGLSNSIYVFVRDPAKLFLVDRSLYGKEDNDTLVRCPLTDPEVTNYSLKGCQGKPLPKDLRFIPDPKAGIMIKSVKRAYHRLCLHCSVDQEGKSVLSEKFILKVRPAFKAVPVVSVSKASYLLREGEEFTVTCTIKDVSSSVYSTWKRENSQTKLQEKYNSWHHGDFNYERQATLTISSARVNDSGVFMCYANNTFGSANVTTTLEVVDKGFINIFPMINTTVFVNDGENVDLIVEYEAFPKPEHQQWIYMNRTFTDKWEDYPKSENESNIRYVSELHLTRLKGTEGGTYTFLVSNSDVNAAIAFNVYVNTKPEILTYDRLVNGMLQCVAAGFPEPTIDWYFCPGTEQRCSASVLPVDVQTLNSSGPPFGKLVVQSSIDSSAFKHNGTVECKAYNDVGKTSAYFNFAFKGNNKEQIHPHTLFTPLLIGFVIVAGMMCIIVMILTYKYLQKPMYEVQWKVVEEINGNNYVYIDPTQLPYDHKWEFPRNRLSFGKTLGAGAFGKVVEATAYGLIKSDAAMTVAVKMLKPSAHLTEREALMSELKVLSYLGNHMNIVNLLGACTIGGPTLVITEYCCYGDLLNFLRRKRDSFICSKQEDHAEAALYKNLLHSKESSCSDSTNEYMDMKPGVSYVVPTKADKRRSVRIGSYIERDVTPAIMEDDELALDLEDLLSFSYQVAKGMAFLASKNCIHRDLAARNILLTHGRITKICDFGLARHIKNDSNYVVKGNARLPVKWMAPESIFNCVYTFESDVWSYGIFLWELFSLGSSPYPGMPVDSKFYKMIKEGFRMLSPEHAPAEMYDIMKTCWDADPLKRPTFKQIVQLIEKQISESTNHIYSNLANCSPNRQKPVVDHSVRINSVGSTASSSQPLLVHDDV
Procedure: as §1

[9] = biological target: T9, Mer(h) (Homo sapiens, UniProt Q12866)
T9 construct: purchased Eurofins (KinaseProfiler)
T9 sequence (Q12866 21-999): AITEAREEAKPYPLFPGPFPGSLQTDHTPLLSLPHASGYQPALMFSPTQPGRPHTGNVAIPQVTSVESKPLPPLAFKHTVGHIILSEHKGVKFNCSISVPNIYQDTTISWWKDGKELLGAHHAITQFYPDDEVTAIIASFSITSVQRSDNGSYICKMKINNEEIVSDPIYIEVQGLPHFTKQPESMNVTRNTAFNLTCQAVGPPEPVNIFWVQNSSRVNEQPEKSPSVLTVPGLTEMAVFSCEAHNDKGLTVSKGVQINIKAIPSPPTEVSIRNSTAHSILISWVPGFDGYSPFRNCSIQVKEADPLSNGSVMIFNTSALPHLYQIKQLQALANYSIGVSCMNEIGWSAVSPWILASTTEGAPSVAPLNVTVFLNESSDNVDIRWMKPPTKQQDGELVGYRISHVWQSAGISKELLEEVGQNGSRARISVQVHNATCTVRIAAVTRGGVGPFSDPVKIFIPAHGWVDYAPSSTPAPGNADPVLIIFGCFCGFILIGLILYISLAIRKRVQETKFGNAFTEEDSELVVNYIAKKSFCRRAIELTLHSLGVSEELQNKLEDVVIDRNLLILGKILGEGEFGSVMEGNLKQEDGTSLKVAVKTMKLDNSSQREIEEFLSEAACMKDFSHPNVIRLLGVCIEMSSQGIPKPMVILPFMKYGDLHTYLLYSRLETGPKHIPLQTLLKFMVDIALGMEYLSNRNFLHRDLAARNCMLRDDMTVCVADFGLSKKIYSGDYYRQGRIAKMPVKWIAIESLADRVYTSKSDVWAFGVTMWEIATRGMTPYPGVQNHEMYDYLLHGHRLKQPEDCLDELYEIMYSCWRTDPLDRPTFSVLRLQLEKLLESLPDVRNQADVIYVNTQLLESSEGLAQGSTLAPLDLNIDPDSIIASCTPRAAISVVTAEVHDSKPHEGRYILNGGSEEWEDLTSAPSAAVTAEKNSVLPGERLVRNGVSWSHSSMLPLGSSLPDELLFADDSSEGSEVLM

[10] = biological target: T10, cSRC(h) (Homo sapiens, UniProt P12931)
T10 construct: purchased Eurofins (KinaseProfiler)
T10 sequence (P12931 whole entry): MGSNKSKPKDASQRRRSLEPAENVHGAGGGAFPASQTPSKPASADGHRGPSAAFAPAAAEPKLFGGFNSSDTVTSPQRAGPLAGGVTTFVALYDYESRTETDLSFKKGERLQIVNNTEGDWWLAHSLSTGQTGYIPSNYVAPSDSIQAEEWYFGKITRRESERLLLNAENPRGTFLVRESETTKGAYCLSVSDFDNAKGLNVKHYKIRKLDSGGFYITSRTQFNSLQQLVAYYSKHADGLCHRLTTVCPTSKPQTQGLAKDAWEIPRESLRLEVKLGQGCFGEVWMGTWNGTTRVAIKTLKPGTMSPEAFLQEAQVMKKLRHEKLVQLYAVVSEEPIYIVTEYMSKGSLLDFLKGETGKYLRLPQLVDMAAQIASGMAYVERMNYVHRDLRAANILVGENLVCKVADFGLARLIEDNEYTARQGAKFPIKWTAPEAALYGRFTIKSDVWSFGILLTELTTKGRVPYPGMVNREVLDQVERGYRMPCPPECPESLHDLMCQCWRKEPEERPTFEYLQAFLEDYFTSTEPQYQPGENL

## COc1cc(OC)c(Cl)c(-c2ccc3c(NC(=O)c4ccc(N5CCNC(C)(C)C5)cc4)n[nH]c3n2)c1Cl [3D185]
[1]; 10 nM
  inhibition at 0.01 µM: -1%
[1]; 100 nM
  inhibition at 0.1 µM: -4%
[1]; 1000 nM
  inhibition at 1 µM: -9%
[2]; 10 nM
  inhibition at 0.01 µM: 5%
[2]; 100 nM
  inhibition at 0.1 µM: 23%
[2]; 1000 nM
  inhibition at 1 µM: 57%
[3]; 10 nM
  inhibition at 0.01 µM: -7%
[3]; 100 nM
  inhibition at 0.1 µM: -11%
[3]; 1000 nM
  inhibition at 1 µM: -11%
[4]; 10 nM
  inhibition at 0.01 µM: 3%
[4]; 100 nM
  inhibition at 0.1 µM: 2%
[4]; 1000 nM
  inhibition at 1 µM: 0%
[5]; 10 nM
  inhibition at 0.01 µM: -1%
[5]; 100 nM
  inhibition at 0.1 µM: 7%
[5]; 1000 nM
  inhibition at 1 µM: 36%
[6]; 10 nM
  inhibition at 0.01 µM: -1%
[6]; 100 nM
  inhibition at 0.1 µM: 1%
[6]; 1000 nM
  inhibition at 1 µM: 3%
[7]; 10 nM
  inhibition at 0.01 µM: 10%
[7]; 100 nM
  inhibition at 0.1 µM: 4%
[7]; 1000 nM
  inhibition at 1 µM: 3%
[8]; 10 nM
  inhibition at 0.01 µM: 22%
[8]; 100 nM
  inhibition at 0.1 µM: 27%
[8]; 1000 nM
  inhibition at 1 µM: 44%
[9]; 10 nM
  inhibition at 0.01 µM: -9%
[9]; 100 nM
  inhibition at 0.1 µM: -7%
[9]; 1000 nM
  inhibition at 1 µM: 32%
[10]; 10 nM
  inhibition at 0.01 µM: 26%
[10]; 100 nM
  inhibition at 0.1 µM: 53%
[10]; 1000 nM
  inhibition at 1 µM: 87%
